For 19 molecules, IC50 results are on record in patent publication US20230065740A1, “CYCLIN-DEPENDENT KINASE INHIBITORS” (SPV THERAPEUTICS INC., priority 2018, published 2023).

One assay deals with CDK4-CYCLIND1 (Homo sapiens, UniProt P11802). The experiment in a line: Microfluidic LabChip kinase inhibition assay, CDK4-CyclinD1. The conditions noted are these: CDK4 IC50 (μM), Table 2; 200 μM ATP, 1 nM enzyme.
A further assay addresses T1, CDK6-CYCLIND3 (Homo sapiens, UniProt Q00534).
T1 construct: purchased Carna
The experiment in a line: Microfluidic LabChip kinase inhibition assay, CDK6-CyclinD3. In kind it is biochemical. Particulars: Table 2; 300 μM ATP, 2 nM enzyme; read-out: CDK6 IC50.

T1 sequence (Q00534 whole entry): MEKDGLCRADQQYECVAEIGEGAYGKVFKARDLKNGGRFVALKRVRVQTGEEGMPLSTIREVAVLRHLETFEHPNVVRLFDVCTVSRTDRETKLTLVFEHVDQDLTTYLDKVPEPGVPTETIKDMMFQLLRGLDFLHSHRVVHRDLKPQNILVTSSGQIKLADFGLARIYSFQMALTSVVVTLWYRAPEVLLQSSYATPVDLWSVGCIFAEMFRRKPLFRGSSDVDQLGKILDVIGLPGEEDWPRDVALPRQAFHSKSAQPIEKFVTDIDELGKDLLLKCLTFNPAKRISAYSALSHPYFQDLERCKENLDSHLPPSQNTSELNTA
T1 sequence (P30281 whole entry partner): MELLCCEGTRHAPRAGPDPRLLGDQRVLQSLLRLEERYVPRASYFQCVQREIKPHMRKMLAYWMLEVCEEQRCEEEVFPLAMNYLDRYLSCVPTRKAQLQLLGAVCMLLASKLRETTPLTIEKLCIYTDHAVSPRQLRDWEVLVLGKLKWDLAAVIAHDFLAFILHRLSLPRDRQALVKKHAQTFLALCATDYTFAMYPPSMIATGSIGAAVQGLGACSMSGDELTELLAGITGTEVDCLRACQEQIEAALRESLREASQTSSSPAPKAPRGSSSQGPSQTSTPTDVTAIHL
Chain of CDK4-CYCLIND1 (P11802 whole entry): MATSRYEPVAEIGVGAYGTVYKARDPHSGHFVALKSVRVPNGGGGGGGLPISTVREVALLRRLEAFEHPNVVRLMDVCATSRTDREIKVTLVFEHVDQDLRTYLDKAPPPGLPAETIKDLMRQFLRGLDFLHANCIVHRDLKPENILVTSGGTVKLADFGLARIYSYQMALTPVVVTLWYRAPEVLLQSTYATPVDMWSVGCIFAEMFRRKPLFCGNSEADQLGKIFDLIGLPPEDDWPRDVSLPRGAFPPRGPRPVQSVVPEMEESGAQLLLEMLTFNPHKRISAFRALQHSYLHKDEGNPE
Chain of CDK4-CYCLIND1 (P24385 whole entry partner): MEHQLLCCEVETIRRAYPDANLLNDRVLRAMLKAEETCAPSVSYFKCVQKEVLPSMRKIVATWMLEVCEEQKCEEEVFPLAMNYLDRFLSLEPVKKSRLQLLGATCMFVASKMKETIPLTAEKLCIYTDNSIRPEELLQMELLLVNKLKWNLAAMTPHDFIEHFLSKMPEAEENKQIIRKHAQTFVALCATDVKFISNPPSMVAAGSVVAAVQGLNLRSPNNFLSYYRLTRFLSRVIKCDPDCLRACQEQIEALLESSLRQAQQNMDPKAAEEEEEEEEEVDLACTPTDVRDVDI
Protocol for CDK4-CYCLIND1: Inhibition assays were performed using microfluidic LabChip 300 Drug Discovery System from Caliper Life Sciences. […] The assay has a total volume of 10 μL consisting of 5 μL of enzyme and buffer and 5 μL of substrate and buffer. The test compounds were diluted in 100% dimethylsulfoxide (DMSO) using 3-fold dilution steps. […] Compounds were tested in a single well for each dilution and the final concentration of DMSO was maintained at 1%.
The assay buffer contained 100 mM HEPES, pH 7.5, 0.01% Triton X-100, 0.1% bovine serum albumin (BSA), 5 mM MgCl2; 1 mM dithiothreitol (DTT), 10 μM sodium orthovanadate, and 10 μM β-glycerophosphate.
The assay was conducted by adding 5 μL of enzyme, adenosine triphosphate (ATP) and buffer to an assay plate. A 100 nL aliquot of the diluted compounds were added to the plate. The assay was initiated by the addition of 5 μL of phosphoenolpyruvate substrate (PEP) in buffer. […] The reaction was terminated by the addition of EDTA. The plates were analyzed using a Caliper LabChip 3000.

For `CN1CCN(c2ccc(Nc3ncc4c(n3)N(C3CCCC3)C3(CCCN(Cc5ccccc5)C3=O)C4)c(F)c2)CC1` (centres unmarked) [Compound C42, 1-benzyl-7′-cyclopentyl-2′-((2-fluoro-4-(4-methylpiperazin-1-yl)phenyl)amino)-5′,7′-dihydrospiro[piperidine-3,6′-pyrrolo[2,3-d]pyrimidin]-2-one], the half-inhibitory concentration (IC50) (in general, the concentration needed to halve the response being measured) against CDK4-CYCLIND1 is 4.46 µM; on CDK6-CYCLIND3, 12100 nM.
In the same order, the values of `O=C1NCCC12Cc1cnc(Nc3ccc(N4CCNCC4)cc3)nc1N2C1CCCC1` (centres unmarked) [Compound C43, 7′-cyclopentyl-2′-((4-(piperazin-1-yl)phenyl)amino)-5′,7′-dihydrospiro[pyrrolidine-3,6′-pyrrolo[2,3-d]pyrimidin]-2-one] are 0.0633 µM and 423 nM.
Take `O=C1NCCCC12Cc1cnc(Nc3cc(C(F)(F)F)c(N4CCNCC4)cn3)nc1N2C1CCCC1` (centres unmarked) [Compound C44, 7′-cyclopentyl-2′-((5-(piperazin-1-yl)-4-(trifluoromethyl)pyridin-2-yl)amino)-5′,7′-dihydrospiro[piperidine-3,6′-pyrrolo[2,3-d]pyrimidin]-2-one]: the IC50 at CDK4-CYCLIND1 was more than 30 µM; at CDK6-CYCLIND3, more than 30000 nM.
On to `CN1CCN(c2ccc(Nc3ncc4c(n3)N(C3CCCC3)C3(CCNC3=O)C4)cc2)CC1` (centres unmarked) [Compound C45, 7′-cyclopentyl-2′-((4-(4-methylpiperazin-1-yl)phenyl)amino)-5′,7′-dihydrospiro[pyrrolidine-3,6′-pyrrolo[2,3-d]pyrimidin]-2-one], for which the figures for the IC50 against CDK4-CYCLIND1 and on CDK6-CYCLIND3 were 0.105 µM and 574 nM, respectively.
As for `CC(C)N1CCN(c2ccc(Nc3ncc4c(n3)N(C3CCCC3)C3(CCNC3=O)C4)cc2)CC1` (centres unmarked) [Compound C46, 7′-cyclopentyl-2′-((4-(4-isopropylpiperazin-1-yl)phenyl)amino)-5′,7′-dihydrospiro[pyrrolidine-3,6′-pyrrolo[2,3-d]pyrimidin]-2-one], the IC50 against CDK4-CYCLIND1 was 0.0701 µM; on CDK6-CYCLIND3, 394 nM.
The matching figures for `O=C1NCCC12Cc1cnc(Nc3ccc(N4CCNCC4)c(F)c3)nc1N2C1CCCC1` (centres unmarked) [Compound C47, 7′-cyclopentyl-2′-((3-fluoro-4-(piperazin-1-yl)phenyl)amino)-5′,7′-dihydrospiro[pyrrolidine-3,6′-pyrrolo[2,3-d]pyrimidin]-2-one]: 0.0315 µM and 179 nM.
With `CN1CCN(c2ccc(Nc3ncc4c(n3)N(C3CCCC3)C3(CCNC3=O)C4)cc2F)CC1` (centres unmarked) [Compound C48, 7′-cyclopentyl-2′-((3-fluoro-4-(4-methylpiperazin-1-yl)phenyl)amino)-5′,7′-dihydrospiro[pyrrolidine-3,6′-pyrrolo[2,3-d]pyrimidin]-2-one], the IC50 on CDK4-CYCLIND1 was 0.0161 µM; at CDK6-CYCLIND3 it was 129 nM.
For the molecule `CC(C)N1CCN(c2ccc(Nc3ncc4c(n3)N(C3CCCC3)C3(CCNC3=O)C4)cc2F)CC1` (centres unmarked) [Compound C49, 7′-cyclopentyl-2′-((3-fluoro-4-(4-isopropylpiperazin-1-yl)phenyl)amino)-5′,7′-dihydrospiro[pyrrolidine-3,6′-pyrrolo[2,3-d]pyrimidin]-2-one], the IC50 stood at 0.0298 µM against CDK4-CYCLIND1 and 175 nM at CDK6-CYCLIND3.
In the case of `O=C1NCCC12Cc1cnc(Nc3ccc(N4CCNCC4)cc3F)nc1N2C1CCCC1` (centres unmarked) [Compound C50, 7′-cyclopentyl-2′-((2-fluoro-4-(piperazin-1-yl)phenyl)amino)-5′,7′-dihydrospiro[pyrrolidine-3,6′-pyrrolo[2,3-d]pyrimidin]-2-one], the IC50 came to 0.888 µM against CDK4-CYCLIND1 and 4210 nM at CDK6-CYCLIND3.
Take `CN1CCN(c2ccc(Nc3ncc4c(n3)N(C3CCCC3)C3(CCNC3=O)C4)c(F)c2)CC1` (centres unmarked) [Compound C51, 7′-cyclopentyl-2′-((2-fluoro-4-(4-methylpiperazin-1-yl)phenyl)amino)-5′,7′-dihydrospiro[pyrrolidine-3,6′-pyrrolo[2,3-d]pyrimidin]-2-one]: the results for the IC50 at CDK4-CYCLIND1 and on CDK6-CYCLIND3 were more than 30 µM and more than 30000 nM, respectively.
In the same order, the values of `CC(C)N1CCN(c2ccc(Nc3ncc4c(n3)N(C3CCCC3)C3(CCNC3=O)C4)c(F)c2)CC1` (centres unmarked) [Compound C52, 7′-cyclopentyl-2′-((2-fluoro-4-(4-isopropylpiperazin-1-yl)phenyl)amino)-5′,7′-dihydrospiro[pyrrolidine-3,6′-pyrrolo[2,3-d]pyrimidin]-2-one] are more than 30 µM and more than 30000 nM.
In the same order, the values of `O=C1NCCC12Cc1cnc(Nc3ccc(N4CCNCC4)nc3)nc1N2C1CCCC1` (centres unmarked) [Compound C53, 7′-cyclopentyl-2′-((6-(piperazin-1-yl)pyridin-3-yl)amino)-5′,7′-dihydrospiro[pyrrolidine-3,6′-pyrrolo[2,3-d]pyrimidin]-2-one] are 0.0658 µM and 260 nM.
The matching figures for `CN1CCN(c2ccc(Nc3ncc4c(n3)N(C3CCCC3)C3(CCNC3=O)C4)cn2)CC1` (centres unmarked) [Compound C54, 7′-cyclopentyl-2′-((6-(4-methylpiperazin-1-yl)pyridin-3-yl)amino)-5′,7′-dihydrospiro[pyrrolidine-3,6′-pyrrolo[2,3-d]pyrimidin]-2-one]: 0.0926 µM and 414 nM.
For the molecule `CC(C)N1CCN(c2ccc(Nc3ncc4c(n3)N(C3CCCC3)C3(CCNC3=O)C4)cn2)CC1` (centres unmarked) [Compound C55, 7′-cyclopentyl-2′-((6-(4-isopropylpiperazin-1-yl)pyridin-3-yl)amino)-5′,7′-dihydrospiro[pyrrolidine-3,6′-pyrrolo[2,3-d]pyrimidin]-2-one], the values for the IC50 on CDK4-CYCLIND1 and on CDK6-CYCLIND3 were 0.053 µM and 221 nM, respectively.
In the same order, the values of `O=C1NCCC12Cc1cnc(Nc3ccc(C4=CCNCC4)cn3)nc1N2C1CCCC1` (centres unmarked) [Compound C56, 7′-cyclopentyl-2′-((1′,2′,3′,6′-tetrahydro-[3,4′-bipyridin]-6-yl)amino)-5′,7′-dihydrospiro[pyrrolidine-3,6′-pyrrolo[2,3-d]pyrimidin]-2-one] are 0.372 µM and 803 nM.
Consider `CC(C)N1CC=C(c2ccc(Nc3ncc4c(n3)N(C3CCCC3)C3(CCNC3=O)C4)nc2)CC1` (centres unmarked) [Compound C57, 7′-cyclopentyl-2′-((1′-isopropyl-1′,2′,3′,6′-tetrahydro-[3,4′-bipyridin]-6-yl)amino)-5′,7′-dihydrospiro[pyrrolidine-3,6′-pyrrolo[2,3-d]pyrimidin]-2-one], for which the IC50 at CDK4-CYCLIND1 came out at 0.387 µM; at CDK6-CYCLIND3, 952 nM.
With `O=C1NCCC12Cc1cnc(Nc3ccc(N4CCOCC4)c(F)c3)nc1N2C1CCCC1` (centres unmarked) [Compound C58, 7′-cyclopentyl-2′-((3-fluoro-4-morpholinophenyl)amino)-5′,7′-dihydrospiro[pyrrolidine-3,6′-pyrrolo[2,3-d]pyrimidin]-2-one], the IC50 at CDK4-CYCLIND1 was 0.222 µM; at CDK6-CYCLIND3 it was 932 nM.
The matching figures for `CN(C)CCOc1ccc(Nc2ncc3c(n2)N(C2CCCC2)C2(CCNC2=O)C3)cc1` (centres unmarked) [Compound C59, 7′-cyclopentyl-2′-((4-(2-(dimethylamino)ethoxy)phenyl)amino)-5′,7′-dihydrospiro[pyrrolidine-3,6′-pyrrolo[2,3-d]pyrimidin]-2-one]: 0.142 µM and 630 nM.
The matching figures for `CN(C)CCOc1ccc(Nc2ncc3c(n2)N(C2CCCC2)C2(CCNC2=O)C3)nc1` (centres unmarked) [Compound C60, 7′-cyclopentyl-2′-((5-(2-(dimethylamino)ethoxy)pyridin-2-yl)amino)-5′,7′-dihydrospiro[pyrrolidine-3,6′-pyrrolo[2,3-d]pyrimidin]-2-one]: 1.5 µM and 3420 nM.
